Earlier results on one compound are cited in paper PMC11328599, “Crystal structure of dihydroneopterin aldolase from Mycobacterium tuberculosis associated with 8-mercaptoguanine, and development of novel S8-functionalized analogues as inhibitors: Synthesis, enzyme inhibition, in vitro toxicity and antitubercular activity” (Journal of Enzyme Inhibition and Medicinal Chemistry, 2024).

In the series the target is T1, MtFolB (Mycobacterium tuberculosis, UniProt P9WNC5).
T1 construct: made in house
The arrangement: method as in PMID 33752554. As to conditions: previously reported; cited from earlier work.

T1 sequence (P9WNC5 whole entry): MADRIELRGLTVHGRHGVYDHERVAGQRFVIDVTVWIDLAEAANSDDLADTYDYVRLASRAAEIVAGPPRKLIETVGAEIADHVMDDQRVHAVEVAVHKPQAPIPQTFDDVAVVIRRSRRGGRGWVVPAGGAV

For `Nc1nc2nc(S)[nH]c2c(=O)[nH]1` [Compound 8-MG, 8-mercaptoguanine], the Inhibition mode entry is reported as “non-competitive”.
